Experimental data published in patent publication US10888544B2, “Methods for treating Gaucher disease” (Genzyme Corporation, priority 2017, dated 2021).
Where “and” joins values, the source holds several entries; their conditions need not be identical. Identical values can stand only once. Like-named read-outs stand apart in the source and are kept apart here.

Assay: Phase 1 single dose pharmacokinetic study of eliglustat tartrate in severe renal impairment and matched normal renal function subjects (Example 3)
Format: in vivo, human
Conditions: for AUC / Cmax / AUC(0-inf) / AUC(0-t) / Vd/F / Tmax: human, 100 mg; for AUC: read-out: AUC, geometric mean
Method: A phase 1, open-label, 2-stage, pharmacokinetic and tolerability study of single dose eliglustat tartrate in subjects with renal impairment (RI) (mild, moderate, and severe) and subjects with normal renal function, matched to RI subjects by age, weight, and cytochrome P450 [CYP] 2D6 phenotype was carried out to study the effect of mild, moderate, and severe RI on the pharmacokinetics (PK) of eliglustat.
Methodology: A phase 1, open-label, 2-stage, pharmacokinetic and tolerability study of single dose eliglustat tartrate in subjects with renal impairment (RI) (mild, moderate, and severe) and subjects with normal renal function, matched to RI subjects by age, weight, and cytochrome P450 [CYP] 2D6 phenotype.
Approximately 32 subjects were planned to be enrolled in 2 stages: Stage 1 comprised of 8 subjects with severe RI and 8 subjects with normal renal function, matched by CYP2D6 phenotype, weight, and age. […] Stage 2 was to include 8 subjects with mild and 8 subjects with moderate RI. Each cohort was to enroll at least 6 CYP2D6 extensive metabolizers (EMs). The remaining 2 subjects were to be poor metabolizers (PMs), intermediate metabolizers (IMs) or EMs, enrolled according to the following preference: at least 20 subjects were to be screened for each cohort and if identified, up to 2 PMs were to be enrolled. If less than 2 PMs were identified, up to 2 IMs were to be enrolled for a total of 8 subjects. If less than 2 PMs and IMs were identified, up to 2 additional EMs were to be enrolled for a total of 8 subjects. Allowed concomitant medications included no more than one weak CYP3A inhibitor and one weak CYP2D6 inhibitor, alone or in combination.
CYP2D6 EMs and IMs were to receive a single 100 mg dose of eliglustat tartrate while CYP2D6 PMs were to receive a single 50 mg dose of eliglustat tartrate.
Normal renal function subjects: Male or female subjects, between 18 and 79 years, inclusive, body weight within 15% of the body weight of matched subject with RI, BMI between 18.0 and 37.0 kg/m^2 and a CrCl of >80 mL/min. Healthy subjects were also matched by age and CYP2D6 predicted phenotype based on genotype.
A single 100 mg capsule of eliglustat tartrate (equivalent to 84 mg of eliglustat) was to be administered to CYP2D6 EM or IM subjects with RI and matching healthy subjects.
Pharmacokinetics: Plasma eliglustat concentrations were used to determine the following PK parameters using noncompartmental methods: Maximum plasma concentration observed (Cmax), first time to reach Cmax (tmax), area under the plasma concentration versus time curve calculated using the trapezoidal method from time zero to the time corresponding to the last concentration above the limit of quantification, tlast (AUClast), area under the plasma concentration time curve extrapolated to infinity (AUC), terminal half-life associated with the terminal slope Xz (t1/2z), apparent total body clearance of a drug from plasma (CL/F), and apparent volume of distribution during the terminal phase (VZ/F).
Blood samples were collected at the following time points to assess plasma concentrations of eliglustat: predose, and 0.5, 1, 1.5, 2, 2.5, 3, 4, 6, 8, 10, 12, 24, and 36 hours postdose.
Eliglustat concentrations in plasma were determined using a validated liquid chromatography tandem mass spectrometry method with a lower limit of quantification (LLOQ) of 0.2 ng/mL.
Eliglustat PK parameters were summarized using descriptive statistics for each population group and for each CYP2D6 phenotype. For log-transformed Cmax, AUClast, AUC, t1/2z, CL/F, and Vz/F, the effect of severe RI on eliglustat PK parameters after a single dose of eliglustat tartrate was analyzed using a linear fixed effects model on CYP2D6 EM subjects. Inclusion of population, CYP3A weak inhibitor, age, and weight as covariate was selected manually, choosing the model with the lowest AlC value. After testing, the final model chosen were those with only population as fixed term. […]

[1] = CYP2D6 EM, healthy, N=7, single oral 100 mg eliglustat tartrate, plasma
[2] = CYP2D6 EM, severe RI, N=7, single oral 100 mg eliglustat tartrate, plasma
[3] = CYP2D6 IM, healthy, N=1, single oral 100 mg eliglustat tartrate, plasma
[4] = IM severe RI subject taking escitalopram and amlodipine
[5] = Severe RI vs Healthy, CYP2D6 EM subjects (7 severe RI and 7 healthy)

## CCCCCCCC(=O)N[C@H](CN1CCCC1)[C@H](O)c1ccc2c(c1)OCCO2 [eliglustat, N-((1R,2R)-1-(2,3-dihydrobenzo[b][1,4]dioxin-6-yl)-1-hydroxy-3-(pyrrolidin-1-yl)propan-2-yl)octanamide]
[1]
  CL/F, geometric mean: (834) [55.2] L/h
  CL/F, mean ± SD: 963 ± 532 L/h
  t1/2z, geometric mean: (8.39) [17.8] h
  t1/2z, mean ± SD: 8.50 h and 8.50 ± 1.51 h
  tlast, median: 36.00 h
[2]
  CL/F, geometric mean: (845) [39.2] L/h
  CL/F, mean ± SD: 903 ± 354 L/h
  t1/2z, geometric mean: (6.51) [13.3] h
  t1/2z, mean ± SD: 6.56 h and 6.56 ± 0.876 h
  tlast, median: 36.00 h
[3]
  CL/F: 151 L/h
  t1/2z: 9.59 h
  tlast: 36.00 h
CYP2D6 IM, severe RI, N=1, taking escitalopram and amlodipine, single oral 100 mg eliglustat tartrate, plasma
  tlast: 36.00 h
[4]
  AUClast ratio, CYP2D6 IM with severe RI vs CYP2D6 EM with severe RI: 35.2 fold
  AUClast ratio, CYP2D6 IM with severe RI vs CYP2D6 IM healthy subject: 6.90 fold
  AUClast ratio, CYP2D6 IM with severe RI vs healthy CYP2D6 EMs: 32.1 fold
[5]
  AUClast geometric mean ratio, point estimate: 0.994
  CL/F geometric mean ratio, point estimate: 1.014
  Vz/F geometric mean ratio, point estimate: 0.787
  t1/2z geometric mean ratio, point estimate: 0.776
Both sexes, plasma, oral, CYP2D6 EM, severe RI, coadministered weak CYP3A inhibitor amlodipine, N=5
  AUC: 98.3 ng·h/mL
Both sexes, plasma, oral, CYP2D6 EM, severe RI, coadministered weak CYP3A inhibitor amlodipine, N=5, read-out: Cmax, geometric mean
  Cmax: 10.6 ng/mL
Both sexes, plasma, oral, CYP2D6 EM, severe RI, eliglustat tartrate alone, N=2
  AUC: 104 ng·h/mL
Both sexes, plasma, oral, CYP2D6 EM, severe RI, eliglustat tartrate alone, N=2, read-out: Cmax, geometric mean
  Cmax: 15.2 ng/mL
Both sexes, plasma, po, CYP2D6 EM, healthy, N=7, single oral 100 mg eliglustat tartrate, plasma, read-out: AUC (extrapolated to infinity), geometric mean
  AUC(0-inf): 101 ng·h/mL
Both sexes, plasma, po, CYP2D6 EM, healthy, N=7, single oral 100 mg eliglustat tartrate, plasma, read-out: AUC (extrapolated to infinity), mean ± SD
  AUC(0-inf): 118 ± 71.1 ng·h/mL
Both sexes, plasma, po, CYP2D6 EM, healthy, N=7, single oral 100 mg eliglustat tartrate, plasma, read-out: AUClast, geometric mean
  AUC(0-t): 96 ng·h/mL
Both sexes, plasma, po, CYP2D6 EM, healthy, N=7, single oral 100 mg eliglustat tartrate, plasma, read-out: AUClast, mean ± SD
  AUC(0-t): 112 ± 68.7 ng·h/mL
Both sexes, plasma, po, CYP2D6 EM, healthy, N=7, single oral 100 mg eliglustat tartrate, plasma, read-out: Cmax, geometric mean
  Cmax: 13.4 ng/mL
Both sexes, plasma, po, CYP2D6 EM, healthy, N=7, single oral 100 mg eliglustat tartrate, plasma, read-out: Cmax, mean ± SD
  Cmax: 17.6 ± 13.2 ng/mL
Both sexes, plasma, po, CYP2D6 EM, healthy, N=7, single oral 100 mg eliglustat tartrate, plasma, read-out: Vz/F, geometric mean
  Vd/F: 10100 L
Both sexes, plasma, po, CYP2D6 EM, healthy, N=7, single oral 100 mg eliglustat tartrate, plasma, read-out: Vz/F, mean ± SD
  Vd/F: 11700 ± 6710 L
Both sexes, plasma, po, CYP2D6 EM, healthy, N=7, single oral 100 mg eliglustat tartrate, plasma, read-out: tmax, median
  Tmax: 1.5 h
Both sexes, plasma, po, CYP2D6 EM, severe RI, N=7 (5 taking amlodipine), single oral 100 mg eliglustat tartrate, plasma, read-out: Cmax, mean ± SD
  Cmax: 12.7 ± 4.85 ng/mL
Both sexes, plasma, po, CYP2D6 EM, severe RI, N=7, single oral 100 mg eliglustat tartrate, plasma, read-out: AUC (extrapolated to infinity), geometric mean
  AUC(0-inf): 99.8 ng·h/mL
Both sexes, plasma, po, CYP2D6 EM, severe RI, N=7, single oral 100 mg eliglustat tartrate, plasma, read-out: AUC (extrapolated to infinity), mean ± SD
  AUC(0-inf): 107 ± 42.1 ng·h/mL
Both sexes, plasma, po, CYP2D6 EM, severe RI, N=7, single oral 100 mg eliglustat tartrate, plasma, read-out: AUClast, geometric mean
  AUC(0-t): 95.5 ng·h/mL
Both sexes, plasma, po, CYP2D6 EM, severe RI, N=7, single oral 100 mg eliglustat tartrate, plasma, read-out: AUClast, mean ± SD
  AUC(0-t): 102 ± 41.7 ng·h/mL
Both sexes, plasma, po, CYP2D6 EM, severe RI, N=7, single oral 100 mg eliglustat tartrate, plasma, read-out: Cmax, geometric mean
  Cmax: 11.8 ng/mL
Both sexes, plasma, po, CYP2D6 EM, severe RI, N=7, single oral 100 mg eliglustat tartrate, plasma, read-out: Vz/F, geometric mean
  Vd/F: 7940 L
Both sexes, plasma, po, CYP2D6 EM, severe RI, N=7, single oral 100 mg eliglustat tartrate, plasma, read-out: Vz/F, mean ± SD
  Vd/F: 8480 ± 3190 L
Both sexes, plasma, po, CYP2D6 EM, severe RI, N=7, single oral 100 mg eliglustat tartrate, plasma, read-out: tmax, median
  Tmax: 4 h
plasma, oral, CYP2D6 IM, healthy, N=1, single oral 100 mg eliglustat tartrate, plasma, read-out: AUC (extrapolated to infinity)
  AUC(0-inf): 559 ng·h/mL
plasma, oral, CYP2D6 IM, healthy, N=1, single oral 100 mg eliglustat tartrate, plasma, read-out: AUClast
  AUC(0-t): 520 ng·h/mL
plasma, oral, CYP2D6 IM, healthy, N=1, single oral 100 mg eliglustat tartrate, plasma, read-out: Cmax
  Cmax: 54.7 ng/mL
plasma, oral, CYP2D6 IM, healthy, N=1, single oral 100 mg eliglustat tartrate, plasma, read-out: Vz/F
  Vd/F: 2090 L
plasma, oral, CYP2D6 IM, healthy, N=1, single oral 100 mg eliglustat tartrate, plasma, read-out: tmax
  Tmax: 3 h
plasma, oral, CYP2D6 IM, severe RI, N=1, taking escitalopram and amlodipine, single oral 100 mg eliglustat tartrate, plasma, read-out: AUClast
  AUC(0-t): 3590 ng·h/mL
plasma, oral, CYP2D6 IM, severe RI, N=1, taking escitalopram and amlodipine, single oral 100 mg eliglustat tartrate, plasma, read-out: Cmax
  Cmax: 220 ng/mL
plasma, oral, CYP2D6 IM, severe RI, N=1, taking escitalopram and amlodipine, single oral 100 mg eliglustat tartrate, plasma, read-out: tmax
  Tmax: 4 h
